Assay results as given in patent US7507792B2, “MDA-7 proteins and methods of use thereof” (The Trustees of Columbia University In The City of New York, priority 1993, dated 2009).
Like-named read-outs stand apart in the source and are kept apart here.

How the values were obtained:
Type in all cases: cell-based, human
mda-6 (WAF1/CIP1/SDI1) [1] = test: Induction of mda-6 (WAF1/CIP1/SDI1) expression in HL-60 cells (Northern blotting, RT-PCR); settings: CHX 10 μg/ml 1, 3, 6 or 10 h, without or with TPA 3 nM
Procedure: HL-60 cells were originally provided by Dr. R. C. Gallo (National Cancer Institute, Bethesda, Md.) (Collins et al., 1978; Huberman & Callaham, 1979). HL-60 cells designated HL-525 were derived by cloning HL-60 cells after subculturing 102 times in the presence of increasing concentrations (up to 3 μM) of TPA at 5- to 8-day intervals (Homma et al., 1986; Mitchell et al., 1986). […] Prior to the experiments described in this study, the HL-525 cells were subcultured more than 20 times in the absence of TPA. Cells were grown in 100-mm tissue culture dishes in RPMI 1640 medium supplemented with 20% fetal bovine serum, penicillin (100 units/ml) and streptomycin (100 μg/ml) (Grand Island Biological Co., NY) at 37° C. in an atmosphere of 5% CO2 in air in a humidified incubator. The 1,25-(OH)2D3(Vit D3) and TPA were dissolved in a final concentration of 0.01% DMSO, and all-trans retinoic acid (RA) was dissolved in 0.1% DMSO in culture medium. […]
RNA was purified by centrifugation through a CsC1 cushion as described by Chirgwin et al. (1979). […] Following hybridization, the filters were washed and exposed for autoradiography (Reddy et al., 1991; Su et al., 1991; Jiang et al., 1992). mda-6 and GAPDH gene expression were also determined by reverse transcription-polymerase chain reaction (RT-PCR) as described (Adollahi et al. 1991; Lin et al., 1994). […]

mda-6 (WAF1/CIP1/SDI1) [2] = settings: HL-525
Procedure: (§1) HL-60 cells were originally provided by Dr. R. C. Gallo (National Cancer Institute, Bethesda, Md.) (Collins et al., 1978; Huberman & Callaham, 1979). HL-60 cells designated HL-525 were derived by cloning HL-60 cells after subculturing 102 times in the presence of increasing concentrations (up to 3 μM) of TPA at 5- to 8-day intervals (Homma et al., 1986; Mitchell et al., 1986). […] Prior to the experiments described in this study, the HL-525 cells were subcultured more than 20 times in the absence of TPA. Cells were grown in 100-mm tissue culture dishes in RPMI 1640 medium supplemented with 20% fetal bovine serum, penicillin (100 units/ml) and streptomycin (100 μg/ml) (Grand Island Biological Co., NY) at 37° C. in an atmosphere of 5% CO2 in air in a humidified incubator. The 1,25-(OH)2D3(Vit D3) and TPA were dissolved in a final concentration of 0.01% DMSO, and all-trans retinoic acid (RA) was dissolved in 0.1% DMSO in culture medium. […] Control cultures were treated with DMSO at a final concentration of 0.1% in culture medium. For experiments designed to test the effect of DMSO on HL-60 and HL-525 cells, DMSO was added to tissue culture medium at a final concentration of 1%. Stock solutions of CHX (10 mg/ml) were prepared in culture medium. CHX was added at a final concentration of 10 μg/ml. To examine a requirement for protein synthesis on mda-6 gene expression, HL-60 or HL-525 cells were seeded into 150 mm Petri dishes (5×10^5 cells/ml) in 30 ml of medium. CHX was added to a final concentration of 10 μg/ml 15 min prior to the addition of TPA to 3 nM. Cells were harvested at various times after addition of TPA for subsequent RNA isolation and analysis.
RNA was purified by centrifugation through a CsC1 cushion as described by Chirgwin et al. (1979). Ten μg of RNA was denatured with glyoxal/DMSO, electrophoresed on 1.0% agarose gels, transferred to nylon membranes, hybridized to a ^32P-labeled mda-6 probe (Jiang and Fisher, 1993) and then after stripping the membrane hybridized to a ^32P-labeled rat GAPDH probe (Fort et al., 1985), as described previously (Reddy et at., 1991; Su et al., 1991; Jiang et al., 1992). Following hybridization, the filters were washed and exposed for autoradiography (Reddy et al., 1991; Su et al., 1991; Jiang et al., 1992). mda-6 and GAPDH gene expression were also determined by reverse transcription-polymerase chain reaction (RT-PCR) as described (Adollahi et al. 1991; Lin et al., 1994). Total cytoplasmic RNA was treated with 0.5 units DNase (Boehringer-Mannheim Biochemicals)/μg RNA in 15% glycerol, 10 mM Tris, pH 7.5, 2.5 mM MgCl2, 0.1 mM EDTA, 80 mM KC1, 1 mM CaCl2 and 1 unit/ml RNasin (Promega) at 30° C. for 10 min. RNA was extracted with phenol-chloroform, precipitated with sodium acetate/ethanol and RNA pellets were resuspended in diethylpyrocarbonate-treated H2O. One μg of total RNA was reverse transcribed with 200 units of murine leukemia virus reverse transcriptase (Bethesda Research Laboratories) in 20 μl containing 1 mM deoxyribonucleotide triphosphates, 4 mM MgCl2, 10 mM Tris, pH 8.3, 50 mM KC1, 0.001% gelatin and 0.2 μg oligo-dT primer. Samples were diluted to 100 μl with buffer containing 0.2 mM deoxyribonucleotide triphosphates, 2 mM MgCl2, 10 mM Tris, pH 8.3, 50 mM KC1 and 0.001% gelatin. […]

[3] = tested on: MDA-6 (WAF1/CIP1/SDI1) protein; test: Immunoprecipitation of MDA-6 (WAF1/CIP1/SDI1) protein in HL-60 cells; settings: TPA, DMSO (1%) or RA (1 μM), 12, 24, 48 and 72 h tested
Procedure: Immunoprecipitation analyses were performed as described previously (Duigou et al., 1991; Su et al. 1993). Logarithmically growing HL-60 cells were either untreated or treated for 12, 24, 48 or 72 h with TPA ([…]), RA (1 μM) or DMSO (1%) in 10-cm plates. Cultures were starved of methionine for 1 h at 37° C. in methionine-free medium, cells were concentrated by pelleting and labeled for 4 h at 37° C. in 1 ml of the same medium with 100 μCi of [^35S] (NEN; Express ^35S). After labeling, the cells were washed twice with ice-cold phosphate-buffered saline and lysed for 1 h on ice by the addition of RIPC (20 mM Tris-base, pH 7.5, 500 mM NaCl, 0.05% Nonidet P-40, 100 μg/ml phenylmethylsulfonyl fluoride and 0.02% sodium azide). The lysate was clarified by centrifugation in an Eppendorf microfuge at 10,000×g for 10 min at 4° C. Samples containing 4×10^6 counts were incubated with 2 μg of WAF1/CIP1 (C-19) (Santa Cruz Biotechnology) (or MDA-6 peptide-derived) rabbit polyclonal IgG or actin monoclonal antibody (Oncogene Sciences) with rocking at 4° C. for 24 h. The next day, 30 μl (packed volume) of protein G-agarose (Oncogene Sciences) was added to each tube, and incubation with rocking at 4° C. continued for another hour. The protein G pellets were then washed five times with 1 ml of ice-cold RIPC:phosphate-buffered saline (1:1, v/v). Thirty μl of sodium dodecyl sulfate-polyacrylamide gel electrophoresis buffer were added to the pellets, and the sample was heated at 87° C. for 3 min. The samples were loaded onto an 10% polyacrylamide gel and run overnight at 40 V. The gel contained Rainbow protein markers (Amersham) for sizing. Gels were fixed with 10% acetic acid plus 10% methanol for 30 min, incubated in DMSO for 30 min, incubated with 10% 2,5-diphenyloxazole in DMSO for 30 min, washed three times with cold water (10 min each), dried and exposed to film.

HL-525 cells = test: OKM1 reactivity (immunofluorescence); settings: TPA 3 nM, RA 1 μM or Vit D3 400 nM, percent OKM1 positive cells
Procedure: as §1
(§2) Cell counts were determined by hemocytometer chamber counting. Immunofluorescence tests for reactivity with the OKM1 antibody (Ortho Pharmaceutical Corp., Raritan, N.J.) were performed as previously described (Murao et al., 1983).

HL-60 cells = test: OKM1 reactivity (immunofluorescence); settings: TPA 3 nM, RA 1 μM or Vit D3 400 nM, percent OKM1 positive cells
Procedure: as §1, §2

With `C[C@@H]1C[C@@H]([C@H](O)CC2CC(=O)NC(=O)C2)C(=O)[C@@H](C)C1` [CHX, cycloheximide] the “mda-6 expression in the presence of cycloheximide” value (mda-6 (WAF1/CIP1/SDI1) [1]) was “induction of mda-6” and the “mda-6 expression in the presence of cycloheximide” value (mda-6 (WAF1/CIP1/SDI1) [2]; CHX 10 μg/ml 1, 3, 6 or 10 h, without or with TPA 3 nM) was “induces mda-6 expression”.
In the case of `C[S+](C)[O-]` [DMSO, dimethyl sulfoxide], the “time of treatment at which MDA-6 protein is detected” value [3] is reported as 48 h.
`C=C1/C(=C\C=C2/CCC[C@]3(C)[C@@H]([C@H](C)CCCC(C)(C)O)CC[C@@H]23)C[C@@H](O)C[C@@H]1O` [Vit D3, 1,25-(OH)2D3] was tested, and the “OKM1 reactivity, Days of induction 4” value (HL-525 cells) was 84%, the “OKM1 reactivity, Days of induction 6” value (HL-525 cells) was 80% and the “OKM1 reactivity, Days of induction 4” value (HL-60 cells) was 88%. The “OKM1 reactivity, Days of induction 6” value (HL-60 cells) was 95% and the “time of treatment at which mda-6 expression is induced” value (mda-6 (WAF1/CIP1/SDI1) [2]; TPA 3 nM, Vit D3 400 nM, RA 1 μM, 1 to 12 h test period) was no more than 2 h.
